The test system of data set [1] is H. pylori N6. In words: MIC/MBC determination in broth culture. To be noted: for classical antibacterial activity (growth / metabolic inhibition) against H. pylori: result in words. In kind it is cell-based, Helicobacter pylori. How it is done: In order to distinguish compounds having anti-flagellar activity from compounds having classical antibiotic effects (i.e., bacteriostatic and/or bactericidal effects), the test compounds were additionally subjected to MIC/MBC testing. Helicobacter pylori were grown in liquid culture by harvesting bacteria from overnight-grown plates into brain-heart infusion medium (BHI, Oxoid) with 3% yeast extract and 5% horse serum, added to an initial inoculum of OD600 = 0.05. 10 ml of this bacterial suspension were incubated as a preculture in a 50 ml Falcon tube with lid ajar inside of an air-tight incubation jar and a microaerobic atmosphere generated by Merck Anaerocult C gas generating packs at 37°C and shaking with 175 rpm overnight. On the following day, prior to the beginning of the experiment, the OD600 of the liquid culture was routinely below 1, in mid-exponential growth phase.
Next, 200 µl of the bacterial suspension were added per well of a 24-well-plate (Greiner Cellstar #662160) diluted to an initial OD600 of 0.07. Compounds (in DMSO) were added to the sample wells in duplicates in a serial dilution of starting at an upper limit of 256 µg/ml. Pure DMSO was added to all wells for a concentration of 2% DMSO per well. The multiwell plate (with lid) was incubated inside of an incubation jar and a microaerobic atmosphere generated by Merck Anaerocult C sachets at 37°C and shaking with 175 rpm for 24 h. For measurement, the duplicates were pooled after visual inspection, diluted 1:3 in medium and measured in plastic cuvettes as an OD at 600 nm. The detection limit of growth was defined as an OD600 of 0.05. […] This MIC determination method can also be downscaled, further automated and measured in 96- or 384-well plates in a micro-well plate incubator equipped with a gas chamber for microaerobic bacterial incubation.
For evaluation of the "minimum bactericidal concentration" (MBC), bacteria from the MIC experiment were streaked and plated at different serial dilutions on blood agar, including the lowest compound concentration where bacterial growth was still measurable by OD600 (OD600 ≥ 0.05), and three compound concentration levels above (if possible). The blood agar plates were incubated at 37°C in an […], either inside an incubation jar (Oxoid) with an Anaerocult C gas pack (Merck), or in an anaerobic cabinet aerated with a microaerobic gas mix as outlined above (Scholzen).
For evaluation of the MBC, bacteria from the MIC experiment were plated as streaks or in appropriate dilutions on Columbia blood agar plates, using inoculation loops. The plates were incubated at 37°C overnight to detect growth.

Data set [2] in a line: plasma cytokine analysis by Bioplex multiplex bead assay in treated mice. It counts as in vivo, C57B/L6 mice. To be noted: chronic mouse infection model, BioRad Bioplex assay. As for the experimental part: Before the infection and at the end of the treatment experiment, mouse blood was taken from the eye vein of a few selected mice (approximately 30 to 100 µl per mouse). The blood plasma was subsequently separated from cells using separation centrifugation devices (Sarstedt Microvette lithium-heparin). Plasma was diluted in Biorad Bioplex assay buffer to one fourth of the initial concentration and measured in the 23-Plex BioPlex bead-based multiplex cytokine assay (Biorad #m60009rdpd) according to the manufacturer's instructions and using the provided standards. Each sample was measured in a total volume of 50 µl in duplicate.

For data set [3], the system named is H. pylori flaA-luciferase reporter strain N6. The data set can be described thus: microbe, parasite or virus in culture. It counts as cell-based, Helicobacter pylori. The source says: The H. pylori flaA promoter was fused with a luciferase operon (luxAB) from Vibrio harveyi in a H. pylori suicide plasmid (Niehus, Ye, Suerbaum, & Josenhans, 2002). The flaA reporter fusion was recombined into the H. pylori chromosome and the resulting strain tested to be strongly luminescence positive. The reporter strain (N6 flaA-lux4B) activated luminescence to about 40,000 to 60,000 counts per second using luciferase substrate at an OD600 of 0.8 (mid-log phase) in liquid culture. The negative control value of a non-reporter strain or reporter strain without luminescence substrate was close to zero. […] The Z-Factor (Zhang et al., 1999) determined for the assay with various bacterial inhibitors measured in quadruplicates or triplicates was routinely between 0.6 and 0.7, with a confidence interval of 95%.
H. pylori luminescence reporter strains were passaged on blood agar plates less than 22 hours prior to the start of the experiment. The passage number for these assays was not higher than five to preserve the strain's properties and genetic stability. Luciferase reaction buffer was prepared as follows: 50 mM disodium phosphate (Na2HPO4) and 2% BSA were dissolved in HPLC water, filter sterilized, aliquoted and frozen at - 20°C.
Bacteria were harvested in brain-heart infusion medium (BHI, 3% yeast extract with 5% horse serum added) and adjusted to an OD600 of 0.8 at room temperature. 50 µl of the bacterial suspension were added per well of a 96 well plate (non-binding, Greiner Bio-One 655901). 2 µl of each of the test compounds (provided as a 10 mM DMSO solution) were added to the sample wells. The same amount of pure, diluted DMSO was added to the control wells for a concentration of a maximum of 4% DMSO per well, since higher concentrations will interfere with metabolic functions of H. pylori and cause false negative results. The microwell plate was incubated inside a sterile sealed PM Gas Bag (BIOLOG #3032) together with a CampyGen Compact pack (Oxoid) to generate microaerobic conditions at 37°C and with shaking at 175 rpm for 4 h.
Shortly before taking the measurement, the luciferase substrate was prepared by diluting the luminescence substrate decanal (10% stock, Sigma Aldrich) at a 1 :2,000 dilution in luciferase reaction buffer. 60 µl of the substrate were added per well of a white 96 microwell plate (Thermo Scientific #236105) without the lid.
For the final luciferase measurement, 10 µl of bacterial solution were transferred with the epMotion 96 (Eppendorf) simultaneously to the wells containing the luciferase substrate and incubated on a microwell plate shaker for 10 s to lyse the bacteria. The measurements were recorded with a Perkin Elmer Victor 3/WNallac 1420 plate reader (luminometry, measurement time: 0.5 sec) and integrated to counts per sec. For the background measurement, 10 µl sterile medium containing 4% DMSO was added to the wells. For each measurement, at least four luciferase reporter positive control wells (without inhibitory compound) and four negative control wells (background without bacteria) were run on the same day and under the same assay conditions in parallel.

Data set [4] deals with H. pylori N6. The data set can be described thus: vitality / metabolic (respiratory inhibition) counter-screen. In kind it is cell-based, Helicobacter pylori. To be noted: > 100% indicates no inhibition. (A counterscreen serves to expose hits that act by an unwanted route or on another target.)

The structures appear in SMILES notation. Converted amounts (≈) assume the structure as drawn. “And” between values parts separate entries of the source, which are not always exact repeats. Equal entries are not always repeated. Where two headings read alike, the source gives them in different places.

By MIC is commonly meant the smallest concentration in the dilution series that meets the test's criterion for growth inhibition. A low value points to inhibition by little substance. As a reminder, the IC50 is the concentration needed to halve the response being measured. `Cn1c(CSC(=N)N)c(Cl)c(=O)n1-c1ccccc1` [Active 2] came in with an MIC/MBC with H. pylori N6 [1] (H. pylori) of over 256 µg/mL. In the data set with H. pylori N6 [1] (Helicobacter pylori, N6), this molecule had an MIC of over 256 µg/mL. Further, the “classical antibacterial activity (growth / metabolic inhibition) against H. pylori” value in the data set with H. pylori N6 [1] is recorded as “did not inhibit growth or metabolic activity of H. pylori”; with H. pylori N6 [1] (listed as BL2), “not active against H. pylori in a classical antibacterial (antibiotic) manner”. Also, the plasma cytokine loads result in data set [2] is reported as “No significant change of plasma cytokine loads”. For the same molecule, the IC50 is 2.75 µg/mL (≈ 9.27 µM) in data set [3] (H. pylori flaA-luciferase reporter strain N6, Table 6); under 4.5 µg/mL in data set [3] (Helicobacter pylori, H. pylori flaA-luciferase reporter strain N6, Table 6); 2.74 µg/mL and 8 µM in data set [3] (Helicobacter pylori, read-out: IC50 (luciferase assay), luciferase flagellar reporter assay, Table 3). In data set [3] (H. pylori screen), the “Luciferase assay (% of control)” value is 2,6 % of control. Besides, in data set [3] (result in words), the “inhibitory activity in luciferase reporter assay” value is on record as “strong inhibitor in the primary anti-flagellar reporter screen”. In addition, the “Metabolic assay (% of control)” value with H. pylori N6 [4] was 102,2 % of control.
